pKi: −log10 of the molar value. Counter-ions that a name gives are not always drawn.
Target: Lethal factor protease (Bacillus anthracis, UniProt P15917)
Assay: biochemical

Sequence of Lethal factor protease (P15917 34-809 limits assumed): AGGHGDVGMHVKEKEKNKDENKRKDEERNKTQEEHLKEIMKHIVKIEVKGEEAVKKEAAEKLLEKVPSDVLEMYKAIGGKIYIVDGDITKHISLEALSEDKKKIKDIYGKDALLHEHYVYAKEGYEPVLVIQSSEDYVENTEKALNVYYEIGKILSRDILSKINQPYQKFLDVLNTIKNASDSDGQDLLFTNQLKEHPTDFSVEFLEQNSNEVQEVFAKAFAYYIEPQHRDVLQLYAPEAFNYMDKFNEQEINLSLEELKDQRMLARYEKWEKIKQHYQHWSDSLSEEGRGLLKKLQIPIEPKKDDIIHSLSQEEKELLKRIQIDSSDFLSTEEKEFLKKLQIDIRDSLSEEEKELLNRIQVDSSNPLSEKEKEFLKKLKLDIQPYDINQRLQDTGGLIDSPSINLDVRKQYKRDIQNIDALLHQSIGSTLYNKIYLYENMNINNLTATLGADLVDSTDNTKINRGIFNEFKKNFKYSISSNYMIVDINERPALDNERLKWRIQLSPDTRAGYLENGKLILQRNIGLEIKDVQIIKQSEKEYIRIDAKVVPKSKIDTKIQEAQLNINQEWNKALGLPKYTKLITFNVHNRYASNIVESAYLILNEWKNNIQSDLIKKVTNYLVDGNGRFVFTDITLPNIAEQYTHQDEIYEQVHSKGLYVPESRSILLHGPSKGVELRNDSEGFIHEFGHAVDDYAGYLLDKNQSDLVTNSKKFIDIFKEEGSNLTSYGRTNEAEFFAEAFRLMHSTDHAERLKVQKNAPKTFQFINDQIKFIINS

Cc1cc(NCC(=O)NO)ccc1F [Compound 166986, 2-(4-Fluoro-3-methyl-phenylamino)-N-hydroxy-acetamide] was tested. Which pKi did it give?
Its pKi is 5.12.

With CCCCC(Nc1ccc(F)c(C)c1)C(=O)NO (stereo not shown) [Compound 167162, 2-(4-Fluoro-3-methyl-phenylamino)-hexanoic acid hydroxyamide] as the compound, how does the pKi read?
The pKi was 5.70.

With CCCCC(Nc1cccc(C)c1)C(=O)NO (stereo not shown) [Compound 167170, 2-m-Tolylamino-hexanoic acid hydroxyamide] as the compound, how does the pKi read?
Its pKi is 4.47.

How did the pKi turn out when CCCCC(Nc1cccc(C(C)C)c1)C(=O)NO (stereo not shown) [Compound 167183, 2-(3-Isopropyl-phenylamino)-hexanoic acid hydroxyamide] was run?
Its pKi is under 3.52.

CCCCC(Nc1cccc(CC)c1)C(=O)NO (stereo not shown) [Compound 167201, 2-(3-Ethyl-phenylamino)-hexanoic acid hydroxyamide] was tested. Which pKi did it give?
The pKi was 4.05.

With CCCCC(Nc1cccc(-c2ccccc2)c1)C(=O)NO (stereo not shown) [Compound 167202, 2-(Biphenyl-3-ylamino)-hexanoic acid hydroxyamide] as the compound, how does the pKi read?
Its pKi is 3.63.

CCCCC(Nc1ccccc1)C(=O)NO (stereo not shown) [Compound 167210, 2-Phenylamino-hexanoic acid hydroxyamide] was tested. Which pKi did it give?
The pKi was 3.69.

How did the pKi turn out when CCCCC(Nc1ccc(F)cc1)C(=O)NO (stereo not shown) [Compound 167211, 2-(4-Fluoro-phenylamino)-hexanoic acid hydroxyamide] was run?
Its pKi is 4.09.

How did the pKi turn out when CCCCC(Nc1cc(C)cc(C)c1)C(=O)NO (stereo not shown) [Compound 167226, 2-(3,5-Dimethyl-phenylamino)-hexanoic acid hydroxyamide] was run?
The pKi was 5.13.

With Cc1cc(NC(C(=O)NO)c2ccccc2)ccc1F (stereo not shown) [Compound 167228, 2-(4-Fluoro-3-methyl-phenylamino)-N-hydroxy-2-phenyl-acetamide] as the compound, how does the pKi read?
The pKi was 5.55.

How did the pKi turn out when Cc1cc(NC(Cc2ccc(OC(F)(F)F)cc2)C(=O)NO)ccc1F (stereo not shown) [Compound 167233, 2-(4-Fluoro-3-methyl-phenylamino)-N-hydroxy-3-(4-trifluoromethoxy-phenyl)-propionamide] was run?
The pKi was 3.99.

How did the pKi turn out when Cc1cc(NC(C)C(=O)NO)ccc1F (stereo not shown) [Compound 167235, 2-(4-Fluoro-3-methyl-phenylamino)-N-hydroxy-propionamide] was run?
The pKi was 5.85.

How did the pKi turn out when CCCCC(Nc1ccc(C)cc1)C(=O)NO (stereo not shown) [Compound 167255, 2-p-Tolylamino-hexanoic acid hydroxyamide] was run?
Its pKi is 3.53.

CCCCC(Nc1ccc(Cl)cc1)C(=O)NO (stereo not shown) [Compound 167256, 2-(4-Chloro-phenylamino)-hexanoic acid hydroxyamide] was tested. Which pKi did it give?
The pKi was 3.73.

With CCCCC(Nc1cccc(Cl)c1)C(=O)NO (stereo not shown) [Compound 167257, 2-(3-Chloro-phenylamino)-hexanoic acid hydroxyamide] as the compound, how does the pKi read?
Its pKi is 4.21.

How did the pKi turn out when Cc1cc(N[C@@H](C(=O)NO)C(C)C)cc(C)c1F [Compound 167264, (R)-2-(4-Fluoro-3,5-dimethyl-phenylamino)-N-hydroxy-3-methyl-butyramide] was run?
The pKi was 5.51.

Cc1cc(N[C@@H](C(=O)NO)C(C)C)ccc1F [Compound 167267, (R)-2-(4-Fluoro-3-methyl-phenylamino)-N-hydroxy-3-methyl-butyramide hydrochloride] was tested. Which pKi did it give?
Its pKi is 4.80.

With Cc1cc(N[C@H](C(=O)NO)C(C)C)ccc1F [Compound 167268, (S)-2-(4-Fluoro-3-methyl-phenylamino)-N-hydroxy-3-methyl-butyramide hydrochloride] as the compound, how does the pKi read?
Its pKi is under 3.52.

With CCCC[C@@H](Nc1ccc(F)c(C)c1)C(=O)NO [Compound 167273, (R)-2-(4-Fluoro-3-methyl-phenylamino)-hexanoic acid hydroxyamide] as the compound, how does the pKi read?
The pKi was 6.15.

CCCC[C@H](Nc1ccc(F)c(C)c1)C(=O)NO [Compound 167274, (S)-2-(4-Fluoro-3-methyl-phenylamino)-hexanoic acid hydroxyamide] was tested. Which pKi did it give?
The pKi was 3.94.

How did the pKi turn out when CCCCC(Nc1ccc(OC)cc1)C(=O)NO (stereo not shown) [Compound 167275, 2-(4-Methoxy-phenylamino)-hexanoic acid hydroxyamide] was run?
Its pKi is 4.06.

CCCCC(Nc1cccc(OC)c1)C(=O)NO (stereo not shown) [Compound 167276, 2-(3-Methoxy-phenylamino)-hexanoic acid hydroxyamide] was tested. Which pKi did it give?
Its pKi is 3.85.

With CCCCC(Nc1cccc(F)c1)C(=O)NO (stereo not shown) [Compound 167277, 2-(3-Fluoro-phenylamino)-hexanoic acid hydroxyamide] as the compound, how does the pKi read?
The pKi was 3.87.

How did the pKi turn out when CCCCC(Nc1ccccc1F)C(=O)NO (stereo not shown) [Compound 167291, 2-(2-Fluoro-phenylamino)-hexanoic acid hydroxyamide] was run?
Its pKi is under 3.52.

CCCCC(Nc1ccccc1C)C(=O)NO (stereo not shown) [Compound 167292, 2-o-Tolylamino-hexanoic acid hydroxyamide] was tested. Which pKi did it give?
Its pKi is 3.56.

With CCCCC(Nc1ccccc1OC)C(=O)NO (stereo not shown) [Compound 167293, 2-(2-Methoxy-phenylamino)-hexanoic acid hydroxyamide] as the compound, how does the pKi read?
The pKi was under 3.52.

With CCCC[C@@H](Nc1cc(C)c(F)c(C)c1)C(=O)NO [Compound 167294, (R)-2-(4-Fluoro-3,5-dimethyl-phenylamino)-hexanoic acid hydroxyamide] as the compound, how does the pKi read?
The pKi was 6.28.

CCCC[C@H](Nc1cc(C)c(F)c(C)c1)C(=O)NO [Compound 167295, (S)-2-(4-Fluoro-3,5-dimethyl-phenylamino)-hexanoic acid hydroxyamide] was tested. Which pKi did it give?
The pKi was 3.97.

How did the pKi turn out when Cc1cc(N[C@H](C(=O)NO)C(C)C)cc(C)c1F [Compound 167296, (5)-2-(4-Fluoro-3,5-dimethyl-phenylamino)-N-hydroxy-3-methyl-butyramide] was run?
Its pKi is 3.70.

How did the pKi turn out when CCCCC(Nc1ccc(F)c(Cl)c1)C(=O)NO (stereo not shown) [Compound 167322, 2-(3-Chloro-4-fluoro-phenylamino)-hexanoic acid hydroxyamide] was run?
The pKi was 4.77.

With CCCCC(Nc1ccc(OC)c(C)c1)C(=O)NO (stereo not shown) [Compound 167324, 2-(4-Methoxy-3-methyl-phenylamino)-hexanoic acid hydroxyamide] as the compound, how does the pKi read?
Its pKi is 4.71.

With CCCCC(Nc1cc(C)c(OC)c(C)c1)C(=O)NO (stereo not shown) [Compound 167325, 2-(4-Methoxy-3,5-dimethyl-phenylamino)-hexanoic acid hydroxyamide] as the compound, how does the pKi read?
Its pKi is 4.52.

How did the pKi turn out when Cc1cc(N[C@@H](C)C(=O)NO)ccc1F [Compound 167364, (S)-2-(4-Fluoro-3-methyl-phenylamino)-N-hydroxy-propionamide] was run?
The pKi was 4.06.

With Cc1cc(N[C@H](Cc2ccccc2)C(=O)NO)cc(C)c1F [Compound 167378, (R)-2-(4-Fluoro-3,5-dimethyl-phenylamino)-N-hydroxy-3-phenyl-propionamide] as the compound, how does the pKi read?
The pKi was 5.15.

How did the pKi turn out when Cc1cc(N[C@H](COCc2ccccc2)C(=O)NO)cc(C)c1F [Compound 167379, (R)-3-Benzyloxy-2-(4-fluoro-3,5-dimethyl-phenylamino)-N-hydroxy-propionamide] was run?
The pKi was 5.84.

With CCC[C@@H](Nc1cc(C)c(F)c(C)c1)C(=O)NO [Compound 167391, (R)-2-(4-Fluoro-3,5-dimethyl-phenylamino)-pentanoic acid hydroxyamide] as the compound, how does the pKi read?
The pKi was 6.30.

With Cc1cc(N[C@H](C)C(=O)NO)ccc1F [Compound 167392, (R)-2-(4-Fluoro-3-methyl-phenylamino)-N-hydroxy-propionamide] as the compound, how does the pKi read?
Its pKi is 6.02.

With Cc1cc(N[C@H](CC(C)C)C(=O)NO)cc(C)c1F [Compound 167402, (R)-2-(4-Fluoro-3,5-dimethyl-phenylamino)-4-methyl-pentanoic acid hydroxyamide] as the compound, how does the pKi read?
The pKi was 6.17.

With Cc1cc(N[C@H](CC2CCCCC2)C(=O)NO)cc(C)c1F [Compound 167405, (R)-3-Cyclohexyl-2-(4-fluoro-3,5-dimethyl-phenylamino)-N-hydroxy-propionamide] as the compound, how does the pKi read?
Its pKi is 5.83.

Cc1cc(N[C@H](CCc2ccccc2)C(=O)NO)cc(C)c1F [Compound 167406, (R)-2-(4-Fluoro-3,5-dimethyl-phenylamino)-N-hydroxy-4-phenyl-butyramide] was tested. Which pKi did it give?
Its pKi is 6.29.

How did the pKi turn out when Cc1cc(N[C@@H](C(=O)NO)C2CCCCC2)cc(C)c1F [Compound 167424, (R)-2-Cyclohexyl-2-(4-fluoro-3,5-dimethyl-phenylamino)-N-hydroxy-acetamide] was run?
The pKi was 6.10.

How did the pKi turn out when Cc1cc(N[C@@H](C(=O)NO)c2ccccc2)cc(C)c1F [Compound 167425, (R)-2-(4-Fluoro-3,5-dimethyl-phenylamino)-N-hydroxy-2-phenyl-acetamide] was run?
The pKi was 6.32.

CC[C@@H](Nc1cc(C)c(F)c(C)c1)C(=O)NO [Compound 167450, (R)-2-(4-Fluoro-3,5-dimethyl-phenylamino)-N-hydroxy-butyramide] was tested. Which pKi did it give?
The pKi was 6.17.

Cc1cc(NCC(=O)NO)cc(C)c1F [Compound 167452, 2-(4-Fluoro-3,5-dimethyl-phenylamino)-N-hydroxy-acetamide] was tested. Which pKi did it give?
The pKi was 5.40.

With CCCCC(Nc1cc(C)c(F)c(C)c1)C(=O)NO (stereo not shown) [Compound 167454, 2-(4-Fluoro-3,5-dimethyl-phenylamino)-hexanoic acid hydroxyamide] as the compound, how does the pKi read?
The pKi was 6.10.

How did the pKi turn out when CCCCC(Nc1ccc(C)c(F)c1C)C(=O)NO (stereo not shown) [Compound 167455, 2-(3-Fluoro-2,4-dimethyl-phenylamino)-hexanoic acid hydroxyamide] was run?
The pKi was 4.06.

With Cc1cc(NC(CCC(F)(F)F)C(=O)NO)cc(C)c1F (stereo not shown) [Compound 167482, 5,5,5-Trifluoro-2-(4-fluoro-3,5-dimethyl-phenylamino)-pentanoic acid hydroxyamide] as the compound, how does the pKi read?
Its pKi is 5.96.

How did the pKi turn out when Cc1cc(NC(CCCC(F)(F)F)C(=O)NO)cc(C)c1F (stereo not shown) [Compound 167483, 6,6,6-Trifluoro-2-(4-fluoro-3,5-dimethyl-phenylamino)-hexanoic acid hydroxyamide] was run?
Its pKi is 5.89.

With Cc1cc(N[C@H](COC(C)(C)C)C(=O)NO)cc(C)c1F [Compound 167484, (R)-3-tert-Butoxy-2-(4-fluoro-3,5-dimethyl-phenylamino)-N-hydroxy-propionamide] as the compound, how does the pKi read?
Its pKi is 6.35.

Cc1cc(N[C@H](CO)C(=O)NO)cc(C)c1F [Compound 167485, (R)-2-(4-Fluoro-3,5-dimethyl-phenylamino)-3,N-dihydroxy-propionamide] was tested. Which pKi did it give?
The pKi was 6.23.

Cc1cc(NC(C)C(=O)NO)cc(C)c1F (stereo not shown) [Compound 167486, 2-(4-Fluoro-3,5-dimethyl-phenylamino)-N-hydroxy-propionamide] was tested. Which pKi did it give?
Its pKi is 6.16.

How did the pKi turn out when Cc1cc(N[C@H](C)C(=O)NO)cc(C)c1F [Compound 167497, (R)-2-(4-Fluoro-3,5-dimethyl-phenylamino)-N-hydroxy-propionamide] was run?
Its pKi is 6.33.
